Experimental data as given in patent US10889555B2, “Sulfonamide compound or salt thereof” (Taiho Pharmaceutical Co., Ltd., priority 2016, dated 2021).
Where two headings read alike, the source gives them in different places.

Key:
[1] = molecular target: Human RNR (human M1 subunit and human M2 subunit) (Homo sapiens (Human), UniProt P23921); experiment: Human RNR inhibition effect (formation of dCDP from CDP, HPLC); assay type: biochemical
Experimental: The inhibitory activity against the ribonucleotide reduction reaction (hereinafter referred to as RNR reaction) of the test compound was determined by measuring the formation of deoxycytidine diphosphate (hereinafter referred to as dCDP) from cytidine diphosphate (hereinafter referred to as CDP) by the following method.
Human M1 subunit and human M2 subunit (mutant lacking amino terminal 59 amino acids), which are fused a histidine tag at the amino terminus, are overexpressed in Escherichia coli and are solubilized after collection, and histidine tagged human M1 and M2 proteins were purified on a nickel chelate column.
First, test compounds were serially diluted with DMSO. Next, human M1 protein and human M2 protein were added to an aqueous albumin solution derived from 0.02% fetal bovine serum, a DMSO solution of the compound of the present invention or the control DMSO solution (final concentration of DMSO was 1%) was added, and the mixture was allowed to stand for 20 minutes. Thereafter, the reaction buffer [50 mM HEPES buffer (pH 7.2) at the final concentration, 4 mM magnesium acetate at the final concentration, 100 mM potassium chloride at the final concentration, 6 mM dithiothreitol at the final concentration, 2 mM adenosine triphosphate at the final concentration, 0.24 mM nicotinamide adenine dinucleotide phosphate at final concentration] and 10 μM CDP at the final concentration were added and incubated at 37° C. for 30 minutes to perform RNR reaction. Immediately after the reaction, the reaction was stopped by heating at 100° C. for 15 minutes, followed by centrifugation at 10,000 rpm for 10 minutes. After the centrifugation, a portion (5 μL) of the resulting supernatant was analyzed with a high performance liquid chromatography (Shimadzu Corporation, Prominence) using Shim-pack XR-ODS (manufactured by Shimadzu GLC Co., 3.0×100 mm).

HCC 1806 cells = experiment: Cell proliferation inhibitory effect on human breast cancer cell line (crystal violet, 72 hours); assay type: cell-based; details: read-out: Cell growth suppression IC50
In short: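 Cells were seeded at 2,000/well in RPMI-1640 with 10% FBS and grown 1 day, then exposed to compound for 72 h at 37° C, 5% CO2. After glutaraldehyde fixation and 0.05% crystal violet staining, extracted dye was read at 540 nm. IC50 (μM) came from growth inhibition relative to untreated and cell-free wells.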

[2] = test system: various cancer cell lines as described in Table 21; experiment: Cell proliferation inhibitory effect on human cancer-derived cancer cell lines (method of Test Example 2); assay type: cell-based
Experimental: Human derived breast cancer cell line HCC 1806 cells were daily passaged at a cell density not exceeding 80% in ATCC recommended Roswell Park Memorial Institute medium (RPMI-1640) containing 10% fetal bovine serum (FBS). In order to start the test of cell proliferation inhibitory activity, HCC 1806 cells were suspended in the above medium, after seeing at 180 μL in each well of a 96-well flat bottom plate so that the number of cells per well was 2,000, the cells were cultured at 37° C. for 1 day in an incubator containing 5% carbon dioxide gas. On the next day, the test compound was dissolved in DMSO, and 20 μL of a drug additive solution diluted serially with distilled water to 10 times of the final concentration was added to each well of the culture plate of the cells, and the cells were cultured at 37° C. for 72 hours in an incubator containing 5% carbon dioxide gas. After culturing for 72 hours, 20 μL of glutaraldehyde was added to each well and allowed to stand for 30 minutes, then the plate was washed 10 times with water and was dried. 100 μL of a stain solution (0.05% crystal violet in a 20% methanol solution) was added to each well and allowed to stand for 30 minutes, then the plate was washed 10 times with water and was dried. 100 μL of an extract solution (0.1 N NaH2PO4: 100% ethanol=1:1) was added to each well and mixed, and the mixture was measured at a wavelength of 540 nm using a plate reader (MTP-450 manufactured by Corona Electric Co., Ltd.). The growth inhibition rate was calculated from the following formula, and the concentration (IC50 (μM)) of a test compound inhibiting 50% was determined. Growth inhibition rate (%)={(C−B)−(T−B)}/(C−B)×100
According to the method of Test Example 2, the cell proliferation inhibitory effect on various cancer cell lines as described in Table 21 was evaluated.

[3] = human M1 and M2 subunits, formation of dCDP from CDP, read-out: RNR Enzyme inhibitory activity IC50
[4] = A673, Ewing's sarcoma, 2000 cell/well, read-out: cell proliferation inhibitory effect, A673
[5] = A2780, Ovarian Cancer, 2000 cell/well, read-out: cell proliferation inhibitory effect, A2780
[6] = ACHN, Kidney Cancer, 2000 cell/well, read-out: cell proliferation inhibitory effect, ACHN
[7] = CFPAC-1, Pancreatic Cancer, 2000 cell/well, read-out: cell proliferation inhibitory effect, CFPAC-1
[8] = DU-145, DU145, Prostate Cancer, 5000 cell/well, read-out: cell proliferation inhibitory effect, DU145
[9] = GB-1, Glioblastoma, 3000 cell/well, read-out: cell proliferation inhibitory effect, GB-1
[10] = HCT-116, HCT116, Colorectal Cancer, 1000 cell/well, read-out: cell proliferation inhibitory effect, HCT116
[11] = HLE, Liver Cancer, 3000 cell/well, read-out: cell proliferation inhibitory effect, HLE
[12] = MSTO-211H, Mesothelioma, 6000 cell/well, read-out: cell proliferation inhibitory effect, MSTO-211H
[13] = NCI-H460, Lung Cancer, 1000 cell/well, read-out: cell proliferation inhibitory effect, NCI-H460
[14] = NCI-H2170, Lung Cancer, 5000 cell/well, read-out: cell proliferation inhibitory effect, NCI-H2170
[15] = NCI-H2228, Lung Cancer, 5000 cell/well, read-out: cell proliferation inhibitory effect, NCI-H2228
[16] = NUGC-3, Stomach Cancer, 2000 cell/well, read-out: cell proliferation inhibitory effect, NUGC-3
[17] = RPMI7932, Melanoma, 4000 cell/well, read-out: cell proliferation inhibitory effect, RPMI7932

Chain of Human RNR (human M1 subunit and human M2 subunit) (P23921 whole entry): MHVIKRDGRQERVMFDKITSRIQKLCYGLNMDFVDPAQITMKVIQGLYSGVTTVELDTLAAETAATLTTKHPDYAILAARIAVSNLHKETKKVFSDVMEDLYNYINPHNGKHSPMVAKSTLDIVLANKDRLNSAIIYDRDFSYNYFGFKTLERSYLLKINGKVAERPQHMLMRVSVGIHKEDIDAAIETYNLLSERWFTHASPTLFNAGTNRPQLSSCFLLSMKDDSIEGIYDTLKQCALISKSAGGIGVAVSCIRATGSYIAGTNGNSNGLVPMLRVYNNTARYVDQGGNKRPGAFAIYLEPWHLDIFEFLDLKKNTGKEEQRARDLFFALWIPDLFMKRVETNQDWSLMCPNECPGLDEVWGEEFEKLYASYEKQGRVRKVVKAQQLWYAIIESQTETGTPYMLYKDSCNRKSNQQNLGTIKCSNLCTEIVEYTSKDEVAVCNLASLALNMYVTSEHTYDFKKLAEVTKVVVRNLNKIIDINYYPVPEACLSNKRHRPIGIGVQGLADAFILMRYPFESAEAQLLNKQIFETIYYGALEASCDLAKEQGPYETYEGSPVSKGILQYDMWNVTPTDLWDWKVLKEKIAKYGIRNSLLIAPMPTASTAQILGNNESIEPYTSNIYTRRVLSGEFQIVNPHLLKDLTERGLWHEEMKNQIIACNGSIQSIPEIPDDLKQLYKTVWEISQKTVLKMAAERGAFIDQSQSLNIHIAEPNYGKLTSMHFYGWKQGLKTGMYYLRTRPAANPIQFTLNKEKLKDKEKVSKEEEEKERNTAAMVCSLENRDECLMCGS

IC50 [1, 3] [nM]	IC50 (HCC 1806 cells; Homo sapiens, HCC1806, 72 h) [nM]	IC50 ([1]; human M1 and M2 proteins, 10 μM CDP, 37° C. for 30 minutes, read-out: IC50 (concentration inhibiting the RNR reaction by 50%)) [nM]	SMILES	IC50 (HCC 1806 cells) [nM]	IC50 [2, 4] [nM]	IC50 [2, 5] [nM]	IC50 [2, 6] [nM]	IC50 [2, 7] [nM]	IC50 [2, 8] [nM]	IC50 [2, 9] [nM]	IC50 [2, 10] [nM]	IC50 [2, 11] [nM]	IC50 [2, 12] [nM]	IC50 [2, 13] [nM]	IC50 [2, 14] [nM]	IC50 [2, 15] [nM]	IC50 [2, 16] [nM]	IC50 [2, 17] [nM]
–	–	43000	Cc1ccc(S(=O)(=O)NC(Cc2ccccc2)c2nnc(S)o2)cc1 (stereo not shown) [Comparative Example 1, reference compound]	–	–	–	–	–	–	–	–	–	–	–	–	–	–	–
–	560	–	Cc1c(Cl)ccc(F)c1[C@@H](C)[C@H](NS(=O)(=O)c1ccc(Cl)cc1C(N)=O)c1n[nH]c(=O)o1 [Example 14, 5-chloro-2-(N-((1S,2R)-2-(3 chloro-6-fluoro-2-methylphenyl)-1-(5oxo-4,5-dihydro-1,3,4-oxadiazol-2-yl)propyl)sulfamoyl)benzamide]	–	1850	1710	980	1420	2220	4600	2200	1300	1580	1350	4180	3530	2830	3210

Further lines, the compound ahead of its results:

SMILES	IC50 [1, 3] [nM]	IC50 (HCC 1806 cells; Homo sapiens, HCC1806, 72 h) [nM]	IC50 ([1]; human M1 and M2 proteins, 10 μM CDP, 37° C. for 30 minutes, read-out: IC50 (concentration inhibiting the RNR reaction by 50%)) [nM]	IC50 (HCC 1806 cells) [nM]	IC50 [2, 4] [nM]	IC50 [2, 5] [nM]	IC50 [2, 6] [nM]	IC50 [2, 7] [nM]	IC50 [2, 8] [nM]	IC50 [2, 9] [nM]	IC50 [2, 10] [nM]	IC50 [2, 11] [nM]	IC50 [2, 12] [nM]	IC50 [2, 13] [nM]	IC50 [2, 14] [nM]	IC50 [2, 15] [nM]	IC50 [2, 16] [nM]	IC50 [2, 17] [nM]
Cc1ccc(F)c([C@@H](C)[C@H](NS(=O)(=O)c2ccc(C(F)(F)F)c3c2OCCC3(C)O)c2n[nH]c(=O)o2)c1C (single isomer, unassigned) [Example 225A]	120	600	–	–	–	–	–	–	–	–	–	–	–	–	–	–	–	–
COc1cc(Cl)ccc1S(=O)(=O)N[C@H](c1n[nH]c(=O)o1)[C@H](C)c1c(F)ccc(-c2ccn(C)n2)c1C [Example 305, 4-chloro-N-((1S,2R)-2-(6-fluoro-2-methyl-3-(1-methyl-1H-pyrazol-3-yl)phenyl)-1-(5-oxo-4,5-dihydro-1,3,4-oxadiazol-2-yl)propyl)-2-methoxybenzenesulfonamide]	240	–	–	–	–	–	–	–	–	–	–	–	–	–	–	–	–	–
[2H]C([2H])([2H])C1(O)CCOc2c(S(=O)(=O)N[C@H](c3n[nH]c(=O)o3)[C@H](C)c3c(F)ccc(C)c3C)ccc(Cl)c21 (single isomer, unassigned) [Example 200A]	–	–	–	50	180	130	130	170	170	370	220	140	170	130	490	500	270	430
